# Biological target: T1, Human M4 (Homo sapiens, UniProt P08173)
# T1 construct: expressed in transfected cells
# T1 sequence (P08173 1-479): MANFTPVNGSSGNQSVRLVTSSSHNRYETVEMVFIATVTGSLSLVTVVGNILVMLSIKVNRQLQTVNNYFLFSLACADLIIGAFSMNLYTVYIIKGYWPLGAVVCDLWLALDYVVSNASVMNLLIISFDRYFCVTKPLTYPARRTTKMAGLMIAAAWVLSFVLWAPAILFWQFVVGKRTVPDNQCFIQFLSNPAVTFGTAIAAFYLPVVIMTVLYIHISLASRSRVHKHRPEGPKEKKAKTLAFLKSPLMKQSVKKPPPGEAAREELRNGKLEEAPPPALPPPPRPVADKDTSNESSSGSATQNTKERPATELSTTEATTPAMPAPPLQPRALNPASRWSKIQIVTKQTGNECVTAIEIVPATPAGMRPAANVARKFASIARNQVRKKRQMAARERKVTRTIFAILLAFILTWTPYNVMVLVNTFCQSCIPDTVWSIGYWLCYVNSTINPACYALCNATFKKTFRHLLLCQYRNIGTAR
# Test: mAChR M4 cell-based functional assay (calcium flux, PAM mode)
# Details: hM4-Gqi5 CHO-K1 cells; for Emax at 30 µM: CHO-K1, % ACh maximum at 30 μM; for EC50: concentration-dependent increase in the EC20 acetylcholine response
# Experimental: Human and rat M4 cDNAs, along with the chimeric G protein Gqi5, were transfected into Chinese hamster ovary (CHO-K1) cells purchased from the American Type Culture Collection using Lipofectamine2000. hM4-Gqi5 cells were grown in Ham's F-12 medium containing 10% heat-inactivated fetal bovine serum (FBS), 20 mM HEPES, 50 μg/mL G418 sulfate, and 500 μg/mL Hygromycin B. rM4-Gqi5 cells were grown in DMEM containing 10% heat-inactivated FBS, 20 mM HEPES, 400 μg/mL G418 sulfate, and 500 μg/mL Hygromycin B.
# For high throughput measurement of agonist-evoked increases in intracellular calcium, CHO-K1 cells stably expressing muscarinic receptors were plated in growth medium lacking G418 and hygromycin at 15,000 cells/20 μL/well in Greiner 384-well black-walled, tissue culture (TC)-treated, clear-bottom plates (VWR). Cells were incubated overnight at 37° C. and 5% CO2. The next day, cells were washed using an ELX 405 (BioTek) with assay buffer; the final volume was then aspirated to 20 μL. Next, 20 μL of a 2.3 μM stock of Fluo-4/acetoxymethyl ester (Invitrogen, Carlsbad, CA), prepared as a 2.3 mM stock in DMSO and mixed in a 1:1 ratio with 10% (w/v) Pluronic F-127 and diluted in assay buffer, was added to the wells and the cell plates were incubated for 50 min at 37° C. and 5% CO2. Dye was removed by washing with the ELX 405 and the final volume was aspirated to 20 μL. Compound master plates were formatted in an 11 point concentration-response curve (CRC) format (1:3 dilutions) in 100% DMSO with a starting concentration of 10 mM using a BRAVO liquid handler (Agilent). Test compound CRCs were then transferred to daughter plates (240 nL) using the Echo acoustic plate reformatter (Labcyte, Sunnyvale, CA) and then diluted into assay buffer (40 μL) to a 2× stock using a Thermo Fisher Combi (Thermo Fisher Scientific, Waltham, MA).
# Calcium flux was measured using the Functional Drug Screening System (FDSS) 6000 or 7000 (Hamamatsu Corporation, Tokyo, Japan) as an increase in the fluorescent static ratio. Compounds were applied to cells (20 μL, 2×) using the automated system of the FDSS at 2-4 seconds into the protocol and the data were collected at 1 Hz. At 144 seconds, 10 μL of an EC20 concentration of the muscarinic receptor agonist acetylcholine was added (5×), followed by the addition of 12 μL of an EC80 concentration of acetylcholine at the 230 second time point (5×). Agonist activity was analyzed as a concentration-dependent increase in calcium mobilization upon compound addition. Positive allosteric modulator activity was analyzed as a concentration-dependent increase in the EC20 acetylcholine response. Antagonist activity was analyzed as a concentration-dependent decrease in the EC80 acetylcholine response. Concentration-response curves were generated using a four-parameter logistical equation in XLFit curve fitting software (IDBS, Bridgewater, NJ) for Excel (Microsoft, Redmond, WA) or Prism (GraphPad Software, Inc., San Diego, CA).
# Compounds were synthesized as described above. Activity (EC50 and Emax) was determined in the mAChR M4 cell-based functional assay as described above and the data are shown in Table 2. The compound number corresponds to the compound numbers used in Examples 1 to 11 and Tables 1.
SMILES,Emax at 30 µM [%],EC50 [µM],Human M4 Emax (%)* (% ACh maximum at 30 μM) [%]
"[2H]C1([2H])Oc2ccc(OC3CCN(c4nn5c(=O)c(F)c(C)nc5cc4C)CC3)cc2OC1([2H])[2H] [Compound 15, 7-(4-((2,3-Dihydrobenzo[b][1,4]dioxin-6-yl-2,2,3,3-d4)oxy)piperidin-1-yl)-3-fluoro-2,8-dimethyl-4H-pyrimido[1,2-b]pyridazin-4-one]",80,0.02,–
"[2H]C1([2H])Oc2ccc(OC3CCN(c4nn5c(=O)c(F)c(C)nc5c(C)c4C)CC3)cc2OC1([2H])[2H] [Compound 16, 7-(4-((2,3-Dihydrobenzo[b][1,4]dioxin-6-yl-2,2,3,3-d4)oxy)piperidin-1-yl)-3-fluoro-2,8,9-trimethyl-4H-pyrimido[1,2-b]pyridazin-4-one]",117,0.092,–
"[2H]C1([2H])Oc2ccc(OC3CCN(c4nn5c(=O)c(Cl)c(C)nc5cc4C)CC3)cc2OC1([2H])[2H] [Compound 17, 3-Chloro-7-(4-((2,3-dihydrobenzo[b][1,4]dioxin-6-yl-2,2,3,3-d4)oxy)piperidin-1-yl)-2,8-dimethyl-4H-pyrimido[1,2-b]pyridazin-4-one]",91,0.012,–
"[2H]C1([2H])Oc2ccc(OC3CCN(c4nn5c(=O)ccnc5c(C)c4COC)CC3)cc2OC1([2H])[2H] [Compound 18, 7-(4-((2,3-Dihydrobenzo[b][1,4]dioxin-6-yl-2,2,3,3-d4)oxy)piperidin-1-yl)-8-(methoxymethyl)-9-methyl-4H-pyrimido[1,2-b]pyridazin-4-one]",90,0.162,–
"[2H]C1([2H])Oc2ccc(OC3CCN(c4nn5c(=O)ccnc5c(COC)c4C)CC3)cc2OC1([2H])[2H] [Compound 19, 7-(4-((2,3-Dihydrobenzo[b][1,4]dioxin-6-yl-2,2,3,3-d4)oxy)piperidin-1-yl)-9-(methoxymethyl)-8-methyl-4H-pyrimido[1,2-b]pyridazin-4-one]",75,0.46,–
"Cc1c(N2CCC(Oc3ccc4c(c3)OCCO4)CC2)nn2c(=O)ccnc2c1C1CC1 [Compound 20, 9-Cyclopropyl-7-(4-((2,3-dihydrobenzo[b][1,4]dioxin-6-yl-2,2,3,3-d4)oxy)piperidin-1-yl)-8-methyl-4H-pyrimido[1,2-b]pyridazin-4-one]",81,0.172,–
"[2H]C1([2H])Oc2ccc(OC3CCN(c4nn5c(=O)ccnc5c(C)c4C4CC4)CC3)cc2OC1([2H])[2H] [Compound 21, 8-cyclopropyl-7-(4-((2,3-dihydrobenzo[b][1,4]dioxin-6-yl-2,2,3,3-d4)oxy)piperidin-1-yl)-9-methyl-4H-pyrimido[1,2-b]pyridazin-4-one]",–,2.07,82
"[2H]C1([2H])Oc2ccc(OC3CCN(c4cc(C)c5nccc(=O)n5n4)CC3)cc2OC1([2H])[2H] [Compound 22, 7-(4-((2,3-dihydrobenzo[b][1,4]dioxin-6-yl-2,2,3,3-d4)oxy)piperidin-1-yl)-9-methyl-4H-pyrimido[1,2-b]pyridazin-4-one]",36,1.8,–
"[2H]C1([2H])Oc2ccc(OC3CCN(c4nn5c(=O)c(Cl)cnc5cc4C)CC3)cc2OC1([2H])[2H] [Compound 23, 3-chloro-7-(4-((2,3-dihydrobenzo[b][1,4]dioxin-6-yl-2,2,3,3-d4)oxy)piperidin-1-yl)-8-methyl-4H-pyrimido[1,2-b]pyridazin-4-one]",91,0.044,–
"Cc1ccc(OC2CCN(c3nn4c(=O)ccnc4cc3C)CC2)cn1 [Compound 24, 8-methyl-7-(4-((6-methylpyridin-3-yl)oxy)piperidin-1-yl)-4H-pyrimido[1,2-b]pyridazin-4-one]",73,0.782,–
"Cc1cc2nccc(=O)n2nc1N1CCC(Oc2ccc(F)cc2)CC1 [Compound 25, 7-(4-(4-fluorophenoxy)piperidin-1-yl)-8-methyl-4H-pyrimido[1,2-b]pyridazin-4-one]",90,0.296,–

# The remaining lines, values ahead:
Emax at 30 µM [%],EC50 [µM],Human M4 Emax (%)* (% ACh maximum at 30 μM) [%],SMILES
84,0.066,–,"Cc1cc2nccc(=O)n2nc1N1CCC(Oc2ccc3c(c2)OCCO3)CC1 [Compound 26, 7-(4-((2,3-dihydrobenzo[b][1,4]dioxin-6-yl)oxy)piperidin-1-yl)-8-methyl-4H-pyrimido[1,2-b]pyridazin-4-one]"
79,0.108,–,"[2H]C1([2H])Oc2cc(OC3CCN(c4nn5c(=O)c(Cl)cnc5cc4C)CC3)cc(C)c2OC1([2H])[2H] [Compound 27, 3-chloro-8-methyl-7-(4-((8-methyl-2,3-dihydrobenzo[b][1,4]dioxin-6-yl-2,2,3,3-d4)oxy)piperidin-1-yl)-4H-pyrimido[1,2-b]pyridazin-4-one]"
93,0.288,–,"[2H]C1([2H])Oc2cc(OC3CCN(c4nn5c(=O)ccnc5cc4C)CC3)cc(C)c2OC1([2H])[2H] [Compound 28, 8-methyl-7-(4-((8-methyl-2,3-dihydrobenzo[b][1,4]dioxin-6-yl-2,2,3,3-d4)oxy)piperidin-1-yl)-4H-pyrimido[1,2-b]pyridazin-4-one]"
80,0.043,–,"[2H]C1([2H])Oc2ccc(OC3CCN(c4nn5c(=O)c(C)cnc5cc4C)CC3)cc2OC1([2H])[2H] [Compound 29, 7-(4-((2,3-dihydrobenzo[b][1,4]dioxin-6-yl-2,2,3,3-d4)oxy)piperidin-1-yl)-3,8-dimethyl-4H-pyrimido[1,2-b]pyridazin-4-one]"
80,0.073,–,"[2H]C1([2H])Oc2ccc(OC3CCN(c4nn5c(=O)c(C6CC6)cnc5cc4C)CC3)cc2OC1([2H])[2H] [Compound 30, 3-cyclopropyl-7-(4-((2,3-dihydrobenzo[b][1,4]dioxin-6-yl-2,2,3,3-d4)oxy)piperidin-1-yl)-8-methyl-4H-pyrimido[1,2-b]pyridazin-4-one]"
82,0.032,–,"Cc1cc2ncc(Cl)c(=O)n2nc1N1CCC(Oc2ccc3c(c2)OCCO3)CC1 [Compound 31, 3-chloro-7-(4-((2,3-dihydrobenzo[b][1,4]dioxin-6-yl)oxy)piperidin-1-yl)-8-methyl-4H-pyrimido[1,2-b]pyridazin-4-one]"
81,0.147,–,"Cc1cc2nccc(=O)n2nc1N1CC[C@@H](Oc2ccc3c(c2)OCCO3)[C@H](F)C1 [Compound 32, 7-((3R,4R)-4-((2,3-dihydrobenzo[b][1,4]dioxin-6-yl)oxy)-3-fluoropiperidin-1-yl)-8-methyl-4H-pyrimido[1,2-b]pyridazin-4-one]"
117,0.04,–,"Cc1cc(=O)n2nc(N3CC[C@@H](Oc4ccc5c(c4)OCCO5)[C@@H](F)C3)c(C)cc2n1 [Compound 33, 7-((3S,4R)-4-((2,3-dihydrobenzo[b][1,4]dioxin-6-yl)oxy)-3-fluoropiperidin-1-yl)-2,8-dimethyl-4H-pyrimido[1,2-b]pyridazin-4-one]"
116,0.07,–,"Cc1cc2nccc(=O)n2nc1N1CC[C@@H](Oc2ccc3c(c2)OCCO3)[C@@H](F)C1 [Compound 34, 7-((3S,4R)-4-((2,3-dihydrobenzo[b][1,4]dioxin-6-yl)oxy)-3-fluoropiperidin-1-yl)-8-methyl-4H-pyrimido[1,2-b]pyridazin-4-one]"

# From US11884676B2, “Substituted pyrimido[1,2-b]pyridazines as positive allosteric modulators of the muscarinic acetylcholine receptor M4” (Vanderbilt University, priority 2020, dated 2024)
